Assay results as given in US10758522B2, “Small molecule analogs of the nemo binding peptide” (THE SCRIPPS RESEARCH INSTITUTE, priority 2015, dated 2020).

Assays:
NF-κB target genes = experiment: qRT-PCR of NF-κB target genes in LPS-stimulated Raw 264.7 cells; format: cell-based, mouse; conditions: for transcription of NF-κB target genes (COX2, IL-6, IL-1β, TNF-α, IκBα, iNOS): Raw 264.7, 1 ug/ml LPS 2 hr, mimetics 50 μM, IKKi VII 2 μM, 8K-NBD 400 μM
Method: Effect of the NBD mimetics on expression of NF-kB regulated genes in the Raw mouse macrophage cell line. Treatment of the Raw cells with the indicated drugs prior to addition of LPS reduced NF-kB-mediated gene expression as measured by RT-PCR.
To determine whether the inhibitory effect of the mimetics is TNF-α-dependent, LPS-mediated NF-κB activation via TLR4 was examined to determine a broader inhibitory effect of the novel NBD mimetics. NF-κB was stimulated in Raw 264.7 by 1 ug/ml of LPS for 2 hr and genes transcriptionally regulated by NF-κB were determined by qRT-PCR analysis. Both an IKK active site inhibitor IKKi VII (2 μM) and the 8K-NBD peptide (400 μM) were included as positive controls and the expression of COX2, IL-6, IL-1β, TNF-α, IκBα and iNOS were assessed.
Raw 264.7 cells were treated with a 50 μM solution of the SR compound for 30 minutes, and then the mRNA was harvested 2 hours after addition of 1 μg/mL LPS.
Snap frozen tissues were preserved in RNAlater RNA stabilization solution (ThermoFisher) before processed. Total RNA was extracted from cells or tissues using TRIZOL reagent (Life Technologies) and 1500 ng of messenger RNA (mRNA) was subjected to synthesize complementary DNA (cDNA) using SuperScript VILO cDNA synthesis kit. qRT-PCR was performed in a StepOnePlus Real-Time PCR system using Platinum SYBR Green qPCR SuperMix-UDG (ThermoFisher). Target gene expression was calculated using the comparative CT method (ΔΔCT) and normalized to an internal control gene Actb (β-actin). Primers used are as follows: Ptgs2 (COX-2) forward: […]; Ptgs2 (COX-2) reverse: […]; Nfkbia (IκBα) forward: […]; Nfkbia (IκBα) reverse: […]; Il1b (IL-1β) forward: […]; Il1b (IL-1β) reverse: […]; Nos2 (iNOS) forward: […]; Nos2 (iNOS) reverse: […]; Tnf (TNF) forward: […]; Tnf (TNF) reverse: […]; Il6 (IL-6) forward: […]; Il6 (IL-6) reverse: […]. Actb (β-actin) forward: […]; Actb (β-actin) reverse: […];

[1] = system: embryonic fibroblasts from Ercc1−/− mice; experiment: Senescence rescue assay in ERCC1-deficient murine embryonic fibroblasts (SA-ß-gal); format: cell-based, mouse; conditions: oxidative stress conditions (20% O2)
Excerpt: In an attempt to identify new drugs able to improve healthspan, we have developed an assay for screening for drugs able to rescue primary “aged” fibroblasts from senescence. This assay uses murine embryonic fibroblasts (MEFs) from mice with accelerated aging due to a deficiency in an important DNA repair pathway, ERCC1-XPF. These MEFs undergo rapid senescence in culture, especially when grown under the high oxygen conditions that confers oxidative stress (FIGS. 18 and 19).

IKKβ-NEMO interaction = experiment: Immunoprecipitation of NEMO and IKKβ immunoblot in Raw 264.7 macrophages and HEK293 cells; format: cell-based; conditions: Raw 264.7 macrophages / HEK293; mimetics 100 μM, 8K-NBD 400 μM
Method: The NBD mimetics reduce the interaction between IKKg (NEMO) and IKKß. The indicated concentrations of the drugs were added to HEK 293 or Raw 264.7 cells and cell extracts prepared 30 minutes later. Following immunoprecipitation (IP) of NEMO, the Western was probed for IKKß.
After treatment with the mimetics or NBD peptide, NEMO was immunoprecipitated by an anti-NEMO antibody and IKKβ was immunoblotted to determine the binding of IKKβ to NEMO.
HEK293 or Raw264.7 cells were seeded at 1×10^6 cells/well in 6-well plates and treated with vehicle, small molecule or NBD peptide for indicated time. Cells were lysed in NP-40 lysis buffer supplemented with 1× protease inhibitor cocktails (sigma). Protein was immunoprecipitated by incubating 150 μg of lysate with 1 μg of anti-NEMO antibody (Santa Cruz) on a rotating shaker at 4° C. for 4 hrs, followed by incubation with 20 ul of Protein A agarose beads (ThermoFisher) for 1 hr. Beads were washed in NP40 buffer 3 times and PBS once. Protein was then denatured in SDS-sample buffer and resolved by MINI-PROTEAN TGX 4-15% SDS-PAGE. Anti-IKKβ (1:1000 CST) was used to assess binding of IKKβ to NEMO and anti-NEMO (1:1000 CST) or IgG were used to as a loading control.

IL-6 = IL-6 ELISA in LPS-stimulated Raw 264.7 cells; format: cell-based, mouse; conditions: Raw 264.7, 1 ug/ml LPS, supernatant at 24 hr
Method: To confirm the qRT-PCR result, LPS-mediated IL-6 production was analyzed in Raw 264.7 cells by ELISA. […] Moreover, SR11481 appears to work more efficiently at a lower concentration around 25 μM. Taken together, four lead compounds were identified through seven rounds of optimization and modification.
Enzyme-Linked Immunosorbent Assay (ELISA). Raw264.7 cells were grown in a 96-well plate and pretreated with vehicle, IKKi VII (2 uM) and small molecules (at indicated concentration) for 1 hr, followed by the stimulation with 1 ug/ml of LPS. Supernatant was collected 24 hr later for ELISA analysis. IL-6 concentration was measured using a mouse IL-6 ELISA kit (BD) according to the manufacturer's instructions.

[2] = Pharmacokinetics study after ip injection; format: in vivo; conditions: mice, 10 mg/kg ip, 2 hr
Method: To determine the stability of the NBD mimetics in vivo, the pharmacokinetics of the compounds was determined in serum following ip injection.
The pharmacokinetic profiles of the NBD mimetics were determined in male C57BL/6J mice (n=3). The drugs were formulated in 10:10:80 of DMSO:Tween 80:water and were dosed by intraperitoneal injection at a final dose of 10 mg/kg. Blood, brain, muscle, spleen, and liver were collected 2 hr post-treatment and were analyzed by mass spectrometry by following the protocol described in ref. 215 (42).

[3] = molecular target: T1, IKK complex (IKKß, IKKα and NEMO) (Homo sapiens, UniProt Q9Y6K9); experiment: Co-immunoprecipitation of NEMO with IKKß in 293 cells; format: cell-based; conditions: Zinc-5 at 4 hours, Zinc-13 at 1 hour, NBD peptide at 4 hours
T1 construct: analyzed by Western blot for the level of co-precipitated NEMO; endogenous in cells; host or cells: 293 (HEK293) cells
Excerpt: FIG. 8 is a bar graph showing the inhibition of TNFα by NBDA-1 (Zinc-13). […] In addition, we have examined the ability of the compounds to disrupt the IKK complex, comprised of IKKß, IKKα and NEMO.
A non-functional, related compound Zinc-7 had no effect.

NF-κB = experiment: Firefly luciferase NF-κB reporter assay in TNF-α-stimulated HEK293 cells; format: cell-based; conditions: 293 NF-κB luciferase reporter cells, 10 ng/ml TNF-α; compound 12909780 at 100 μM
Method: This model was used to screen a subset of the drug-like ZINC 8.0 database set (˜900,000 compounds) (Irwin et al., 2005). We were able to identify 161 hits that matched at least 6 features out of eight of the pharmacophore model. […] Two compounds termed NBDA-1 (Zinc-13) and NBDA-2 (Zinc-5), successfully passed these filters (See FIG. 4) and were purchased for biological testing. The compounds were then tested for ability to inhibit TNF-alpha-mediated induction of NF-κB activity in a 293 cells stably modified with a NF-κB luciferase reporter.
The activation of NF-κB was then quantitated by measuring the level of luciferase activity. […] Also, protein extracts were prepared from the same cells and the level of phospho-IkB determined, a marker of IKK activity.
To test if the small molecules identified by the in silico screen inhibit NF-κB activation, a HEK293 cell line stably expressing a luciferase reporter driven by a synthetic, NF-κB-dependent promoter was utilized. To induce NF-κB activation, cells were treated with 10 ng/ml of TNF-α and harvested three hours post-treatment for analysis of luciferase activity. […] To determine if compound 12909780 inhibited NF-κB in a dose dependent manner, concentrations were tested at 0, 6.25, 25, 50 and 100 μM.
HEK293 cells stably transfected with luciferase reporter plasmid driven by NF-κB were seeded in 96-well plate in triplicate and pretreated with DMSO or varying small molecules at indicated concentration for 30 min, followed by the stimulation of 10 ng/ml of TNFα for 3 hr. Cell were washed with PBS once and harvested in passive lysis buffer. Luciferase assay (Promega) was performed using a luminometer according to the manufacturer's instructions.

NEMO = NEMO (Homo sapiens, UniProt Q9Y6K9); conditions: cited from earlier work; for IC50: read-out: IC50, affinity to NEMO
Chain of NEMO (Q9Y6K9 whole entry, species assumed): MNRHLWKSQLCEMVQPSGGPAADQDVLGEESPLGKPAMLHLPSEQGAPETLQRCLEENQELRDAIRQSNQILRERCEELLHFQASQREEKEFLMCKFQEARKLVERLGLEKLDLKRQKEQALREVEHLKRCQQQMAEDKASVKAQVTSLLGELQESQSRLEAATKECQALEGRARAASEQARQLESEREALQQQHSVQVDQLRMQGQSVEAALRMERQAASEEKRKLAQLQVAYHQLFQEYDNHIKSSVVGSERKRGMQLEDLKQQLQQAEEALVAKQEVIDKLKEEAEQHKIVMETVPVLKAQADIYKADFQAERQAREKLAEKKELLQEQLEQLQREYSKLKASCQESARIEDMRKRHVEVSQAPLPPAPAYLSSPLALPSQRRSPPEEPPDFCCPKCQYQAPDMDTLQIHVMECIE

T1 sequence (Q9Y6K9 whole entry, one chain of several): as the sequence (Q9Y6K9 whole entry, species assumed) above

## O=C(c1ccc(Nc2nccc(-c3cc4ccccc4s3)n2)cc1)N1CCC(N2CCCC2)CC1 [IKKi VII, reference compound]
NF-κB target genes
  transcription of NF-κB target genes (COX2, IL-6, IL-1β, TNF-α, IκBα, iNOS): able to inhibit most NF-κB target gene expression
NF-κB target genes; Raw 264.7, LPS
  iNOS expression: failed to downregulate iNOS expression

## CC(Cc1ccc(O)c(O)c1)C(C)Cc1ccc(O)c(O)c1 (centres unmarked) [NDGA]
[1]
  senescence (SA-ß-gal staining) of ERCC1-deficient MEFs: most effective for rescuing senescence

## O=C(COC(=O)Cc1cc(F)cc(F)c1)Nc1ccc(Cl)cn1 [SR11481, 2-((5-chloropyridin-2-yl)amino)-2-oxoethyl 2-(3,5-difluorophenyl)acetate]
IKKβ-NEMO interaction
  disruption of IKKβ-NEMO interaction (NEMO IP, IKKβ blot): disruption of the association between NEMO and IKK-β
NF-κB target genes
  transcription of NF-κB target genes (COX2, IL-6, IL-1β, TNF-α, IκBα, iNOS): failed to suppress all NF-κB target genes
IL-6
  LPS-mediated mIL-6 production (ELISA): reduction in the accumulation of IL-6 protein at 24 hr
[2]
  stability in serum after ip injection: extremely unstable with undetectable levels at 2 hr

## O=C(COCCc1cc(F)cc(F)c1)Nc1ccc(Cl)cn1 [SR12454, N-(5-chloropyridin-2-yl)-2-(3,5-difluorophenethoxy)acetamide]
IKKβ-NEMO interaction
  disruption of IKKβ-NEMO interaction (NEMO IP, IKKβ blot): disruption of the association between NEMO and IKK-β
NF-κB target genes
  transcription of NF-κB target genes (COX2, IL-6, IL-1β, TNF-α, IκBα, iNOS): significantly downregulate the transcription of all NF-κB target genes tested
IL-6
  LPS-mediated mIL-6 production (ELISA): decreasing by half at 25 μM
[2]
  stability in serum after ip injection: moderate stability

## O=C(COC(=O)c1c2ccccc2cc2ccccc12)Nc1ncc(C(F)(F)F)cc1Cl [ZINC7, anthracene-9-carboxylic-acid-[2-[[3-chloro-5-(trifluoromethyl)-2-pyridyl]amino]-2-keto-ethyl]-ester]
[3]
  level of NEMO co-immunoprecipitated with IKKß: had no effect

## O=C(COC(=O)Cc1ccccc1)Nc1ncc(Cl)cc1Cl [ZINC9, 2-phenylacetic-acid-[2-[(3,5-dichloro-2-pyridyl)amino]-2-keto-ethyl]-ester]
NF-κB
  inhibition of TNF-α-induced NF-κB activation (luciferase reporter), in words: lowered NF-κB activity robustly

## CC(=O)Oc1ccccc1C(=O)O [aspirin]
[1]
  senescence (SA-ß-gal staining) of ERCC1-deficient MEFs: most effective for rescuing senescence

## IKKβ-derived peptide (701-746): longer IKKβ-derived peptide (701-746) containing all residues and domains (PAKKSEELVAEAHNLCTLLENAIQDTVREQDQSFTALDWSWLQTEE; UniProt O14920 701-746, looked up, fragment)
NEMO
  IC50: ~0.01 µM

## mutated 11-mer NBD peptide (735-745): 11-mer NBD peptide with substitutions of arginine for W741 and W739 (TALDRSRLQTE; NEMO binding domain; UniProt O14920 735-745, looked up, variant W739R W741R)
NEMO; W741 and W739 substituted by arginine
  binding to NEMO: unable to bind to NEMO

## traditional 11 amino acid NEMO binding domain peptide of IKKβ, amino acids 735-745, TALDWSWLQTE [11-mer NBD peptide]
NEMO
  IC50: ~100 µM
